Measurements reported in US10253002B2, “Compounds and methods of treating infections” (Neoculi Pty Ltd., priority 2013, dated 2019).
Several values for one entry are separate records, joined by “and”; a condition that tells them apart may be missing. Equal values may be shown once.

Assays:
Assay in all cases: Broth microdilution MIC, Example 7 (NCL812 and analogues)
MRSA = assay type: cell-based, Staphylococcus aureus
Summary of the method: (§1)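 CLSI broth microdilution against two MRSA and two VRE strains, tested in duplicate with a third run if results differed by more than one two-fold dilution.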

Escherichia coli = assay type: cell-based; conditions: E. coli, 24 hours
VRE = assay type: cell-based, Enterococcus spp.
Summary of the method: as §1

Pseudomonas aeruginosa = assay type: cell-based; conditions: P. aeruginosa, 24 hours
[1] = MRSA 1, 24 hours, duplicate lines per compound
[2] = MRSA 2, 24 hours, duplicate lines per compound
[3] = VRE 1, 24 hours, duplicate lines per compound
[4] = VRE 2, 24 hours, duplicate lines per compound

SMILES | MIC (μg/ml) at 24 hours, MRSA 1 (MRSA; MRSA 1, 24 hours) [µg/mL] | MIC (μg/ml) at 24 hours, MRSA 2 (MRSA; MRSA 2, 24 hours) [µg/mL] | MIC (μg/ml) at 24 hours, E. coli (Escherichia coli) [µg/mL] | MIC (μg/ml) at 24 hours, VRE 1 (VRE; VRE 1, 24 hours) [µg/mL] | MIC (μg/ml) at 24 hours, VRE 2 (VRE; VRE 2, 24 hours) [µg/mL] | MIC (μg/ml) at 24 hours, P. aeruginosa (Pseudomonas aeruginosa) [µg/mL] | MIC (μg/ml) at 24 hours, MRSA 1 (MRSA; [1]) [µg/mL] | MIC (μg/ml) at 24 hours, MRSA 2 (MRSA; [2]) | MIC (μg/ml) at 24 hours, E. coli (Escherichia coli; duplicate lines per compound) [µg/mL] | MIC (μg/ml) at 24 hours, VRE 1 (VRE; [3]) [µg/mL] | MIC (μg/ml) at 24 hours, VRE 2 (VRE; [4]) [µg/mL] | MIC (μg/ml) at 24 hours, P. aeruginosa (Pseudomonas aeruginosa; duplicate lines per compound) [µg/mL]
N=C(N/N=C/c1ccc(Cl)cc1)N(/N=C/c1ccc(Cl)cc1)C(=O)NCc1ccccc1 [NCL227] | >128 | >128 | >128 | >128 | >128 | >128 | – | – | – | – | – | –
CCCCCCNC(=O)N(N=Cc1ccc(Cl)cc1)C(N)=NN=Cc1ccc(Cl)cc1 [NCL228] | >128 | >128 | >128 | >128 | >128 | >128 | – | – | – | – | – | –
NC(=N/N=C/c1ccc(Cl)cc1)N(/N=C/c1ccc(Cl)cc1)C(=O)NCc1ccco1 [NCL229] | >128 | >128 | >128 | >128 | >128 | >128 | – | – | – | – | – | –
COc1ccc(/C=N/Nc2cc(N/N=C/c3ccc(OC)cc3)nc(N)n2)cc1 [NCL230] | >128 | >128 | >128 | >128 | >128 | >128 | – | – | – | – | – | –
Cc1ccc(/C=N/NC(=N)N/N=C/c2ccc(C)cc2)cc1.Cl [NCL 038] | – | – | – | – | – | – | 8 | 8 µg/mL | >128 | 8 | 8 | >128
COc1ccc(C=NNC(=N)NN=Cc2ccc(OC)c(OC)c2)cc1OC.Cl [NCL 115] | – | – | – | – | – | – | >128 | >128 µg/mL | >128 | >128 | >128 | >128
Cl.N=C(NN=Cc1ccccc1-c1ccccc1)NN=Cc1ccccc1-c1ccccc1 [NCL 116] | – | – | – | – | – | – | >128 | >128 µg/mL | >128 | >128 | >128 | >128
COc1cc(/C=N/NC(=N)N/N=C/c2ccc(O)c(OC)c2)ccc1O.Cl [NCL 117] | – | – | – | – | – | – | 64 | 128 µg/mL | >128 | 64 | 64 | >128
Cl.N=C(N/N=C/c1cc(F)ccc1F)N/N=C/c1cc(F)ccc1F [NCL 118] | – | – | – | – | – | – | >128 | >128 µg/mL | >128 | >128 | >128 | >128
CC(=O)Nc1ccc(C=NNC(=N)NN=Cc2ccc(NC(C)=O)cc2)cc1.Cl [NCL 119] | – | – | – | – | – | – | >128 | >128 µg/mL | >128 | >128 | >128 | >128
CC(C)c1ccc(/C=N/NC(=N)N/N=C/c2ccc(C(C)C)cc2)cc1.Cl [NCL 120] | – | – | – | – | – | – | 8 | 4 µg/mL and 8 µg/mL | >128 | 2 | 8 | >128
